# In patent US20070010671A1, “Novel quinazoline derivatives and methods of treatment related to the use thereof” (priority 2003, published 2007):
# Molecular target: MCH receptor (Homo sapiens, UniProt Q99705)
# Test: High throughput functional screening FLIPR/FDSS6000: inhibition of MCH-evoked intracellular Ca2+ changes
# Type: cell-based
# Conditions: class by percent of control at 10^-7 M or IC50
# Procedure, shortened: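 Fluo4 fluorescence (Ex 488 nm, Em 530 nm) tracked MCH-evoked [Ca2+]i transients over 290 s by FLIPR or FDSS. Cells carried a constitutively active, non-endogenous receptor version. Compounds were added 3 min before a 50 nM MCH challenge.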
row,SMILES,class
1,"CC(C)c1cc(Br)c(NC(=O)N[C@H]2CC[C@@H](Nc3nc(N(C)C)c4ccccc4n3)CC2)c(Br)c1 [compound 339, N-(2,6-dibromo-4-isopropylphenyl)-N′-(cis-4-{[4-(dimethylamino)quinazolin-2-yl]amino}cyclohexyl)urea]",1 (Class 1: The value of percent of control at 10^−7 M was less than 40% or the value of IC50 was less than 50 nM.)
2,CN(C)c1nc(N[C@H]2CC[C@@H](NC(=O)Nc3ccccc3C#N)CC2)nc2ccccc12 [compound 340],3 (Class 3: The value of percent of control at 10^−7 M was more than 60% or the value of IC50 was more than 200 nM.)
3,CN(C)c1nc(N[C@H]2CC[C@@H](NC(=O)Nc3cccs3)CC2)nc2ccccc12 [compound 341],3 (Class 3: The value of percent of control at 10^−7 M was more than 60% or the value of IC50 was more than 200 nM.)
4,"COc1ccc(NC(=O)N[C@H]2CC[C@@H](Nc3nc(N(C)C)c4ccccc4n3)CC2)cc1OC1CCCC1 [compound 342, N-[3-(cyclopentyloxy)-4-methoxyphenyl]-N′-(cis-4-{[4-(dimethylamino)quinazolin-2-yl]amino}cyclohexyl)urea]",1 (Class 1: The value of percent of control at 10^−7 M was less than 40% or the value of IC50 was less than 50 nM.)
5,"CN(C)c1nc(N[C@H]2CC[C@@H](NC(=O)Nc3ccc4c(c3)OCCCO4)CC2)nc2ccccc12 [compound 343, N-(3,4-dihydro-2H-1,5-benzodioxepin-7-yl)-N′-(cis-4-{[4-(dimethylamino)quinazolin-2-yl]amino}cyclohexyl)urea]",1 (Class 1: The value of percent of control at 10^−7 M was less than 40% or the value of IC50 was less than 50 nM.)
6,CN(C)c1nc(N[C@H]2CC[C@@H](NC(=O)Nc3ccsc3)CC2)nc2ccccc12 [compound 344],3 (Class 3: The value of percent of control at 10^−7 M was more than 60% or the value of IC50 was more than 200 nM.)
7,CN(C)c1nc(N[C@H]2CC[C@@H](NC(=O)Nc3ccc(C(C)(C)C)cc3)CC2)nc2ccccc12 [compound 345],3 (Class 3: The value of percent of control at 10^−7 M was more than 60% or the value of IC50 was more than 200 nM.)
8,CCCCc1ccc(NC(=O)N[C@H]2CC[C@@H](Nc3nc(N(C)C)c4ccccc4n3)CC2)c(C)c1 [compound 346],1 (Class 1: The value of percent of control at 10^−7 M was less than 40% or the value of IC50 was less than 50 nM.)
9,"Cc1cc(NC(=O)N[C@H]2CC[C@@H](Nc3nc(N(C)C)c4ccccc4n3)CC2)c(C(F)(F)F)o1 [compound 347, N-(cis-4-{[4-(dimethylamino)quinazolin-2-yl]amino}cyclohexyl)-N′-[5-methyl-2-(trifluoromethyl)-3-furyl]urea]",1 (Class 1: The value of percent of control at 10^−7 M was less than 40% or the value of IC50 was less than 50 nM.)
10,CN(C)c1nc(N[C@H]2CC[C@@H](NC(=O)Nc3ccc(-c4ccccc4)s3)CC2)nc2ccccc12 [compound 348],3 (Class 3: The value of percent of control at 10^−7 M was more than 60% or the value of IC50 was more than 200 nM.)
11,"CN(C)c1nc(N[C@H]2CC[C@@H](NC(=O)Nc3cc(F)cc4c3OCOC4)CC2)nc2ccccc12 [compound 349, N-(cis-4-{[4-(dimethylamino)quinazolin-2-yl]amino}cyclohexyl)-N′-(6-fluoro-4H-1,3-benzodioxin-8-yl)urea]",2 (Class 2: The value of percent of control at 10^−7 M was from 40% to 60% or the value of IC50 was from 50 nM to 200 nM.)
12,CN(C)c1nc(N[C@H]2CC[C@@H](NC(=O)NC3CCN(C(=O)OCc4ccccc4)CC3)CC2)nc2ccccc12 [compound 350],3 (Class 3: The value of percent of control at 10^−7 M was more than 60% or the value of IC50 was more than 200 nM.)
13,CN(C)c1ccc(NC(=O)N[C@H]2CC[C@@H](Nc3nc(N(C)C)c4ccccc4n3)CC2)cc1 [compound 351],3 (Class 3: The value of percent of control at 10^−7 M was more than 60% or the value of IC50 was more than 200 nM.)
14,CN(C)c1nc(N[C@H]2CC[C@@H](NC(=O)Nc3cc(Cl)nc(Cl)c3)CC2)nc2ccccc12 [compound 352],3 (Class 3: The value of percent of control at 10^−7 M was more than 60% or the value of IC50 was more than 200 nM.)
15,"Cc1noc(C)c1NC(=O)N[C@H]1CC[C@@H](Nc2nc(N(C)C)c3ccccc3n2)CC1 [compound 353, N-(cis-4-{[4-(dimethylamino)quinazolin-2-yl]amino}cyclohexyl)-N′-(3,5-dimethylisoxazol-4-yl)urea]",2 (Class 2: The value of percent of control at 10^−7 M was from 40% to 60% or the value of IC50 was from 50 nM to 200 nM.)
16,"Cc1noc(-c2ccccc2)c1NC(=O)N[C@H]1CC[C@@H](Nc2nc(N(C)C)c3ccccc3n2)CC1 [compound 354, N-(cis-4-{[4-(dimethylamino)quinazolin-2-yl]amino}cyclohexyl)-N′-(3-methyl-5-phenylisoxazol-4-yl)urea]",1 (Class 1: The value of percent of control at 10^−7 M was less than 40% or the value of IC50 was less than 50 nM.)

row,SMILES,class
1,"Cc1onc(-c2ccccc2)c1NC(=O)N[C@H]1CC[C@@H](Nc2nc(N(C)C)c3ccccc3n2)CC1 [compound 355, N-(cis-4-{[4-(dimethylamino)quinazolin-2-yl]amino}cyclohexyl)-N′-(5-methyl-3-phenylisoxazol-4-yl)urea]",1 (Class 1: The value of percent of control at 10^−7 M was less than 40% or the value of IC50 was less than 50 nM.)
2,C#CCNC(=S)N[C@H]1CC[C@@H](Nc2nc(N(C)C)c3ccccc3n2)CC1 [compound 356],3 (Class 3: The value of percent of control at 10^−7 M was more than 60% or the value of IC50 was more than 200 nM.)
3,CN(C)c1nc(N[C@H]2CC[C@@H](NC(=S)Nc3ccc(S(=O)(=O)N4CCCCC4)cc3)CC2)nc2ccccc12 [compound 357],3 (Class 3: The value of percent of control at 10^−7 M was more than 60% or the value of IC50 was more than 200 nM.)
4,CN(C)c1nc(N[C@H]2CC[C@@H](NC(=S)NCCC3=CCCCC3)CC2)nc2ccccc12 [compound 358],2 (Class 2: The value of percent of control at 10^−7 M was from 40% to 60% or the value of IC50 was from 50 nM to 200 nM.)
5,"Cc1cccc(NC(=S)N[C@H]2CC[C@@H](Nc3nc(N(C)C)c4ccccc4n3)CC2)c1C [compound 359, N-(cis-4-{[4-(dimethylamino)quinazolin-2-yl]amino}cyclohexyl)-N′-(2,3-dimethylphenyl)thiourea]",1 (Class 1: The value of percent of control at 10^−7 M was less than 40% or the value of IC50 was less than 50 nM.)
6,"CN(C)c1nc(N[C@H]2CC[C@@H](NC(=S)Nc3c(F)cc(Br)cc3Br)CC2)nc2ccccc12 [compound 360, N-(2,4-dibromo-6-fluorophenyl)-N′-(cis-4-{[4-(dimethylamino)quinazolin-2-yl]amino}cyclohexyl)thiourea]",1 (Class 1: The value of percent of control at 10^−7 M was less than 40% or the value of IC50 was less than 50 nM.)
7,"Cc1cc(Cl)cc(Cl)c1NC(=S)N[C@H]1CC[C@@H](Nc2nc(N(C)C)c3ccccc3n2)CC1 [compound 361, N-(2,4-dichloro-6-methylphenyl)-N′-(cis-4-{[4-(dimethylamino)quinazolin-2-yl]amino}cyclohexyl)thiourea]",1 (Class 1: The value of percent of control at 10^−7 M was less than 40% or the value of IC50 was less than 50 nM.)
8,"Cc1ccc(C)c(NC(=S)N[C@H]2CC[C@@H](Nc3nc(N(C)C)c4ccccc4n3)CC2)c1 [compound 362, N-(cis-4-{[4-(dimethylamino)quinazolin-2-yl]amino}cyclohexyl)-N′-(2,5-dimethylphenyl)thiourea]",2 (Class 2: The value of percent of control at 10^−7 M was from 40% to 60% or the value of IC50 was from 50 nM to 200 nM.)
9,"CC(C)c1ccc(NC(=S)N[C@H]2CC[C@@H](Nc3nc(N(C)C)c4ccccc4n3)CC2)c(Br)c1 [compound 363, N-(2-bromo-4-isopropylphenyl)-N′-(cis-4-{[4-(dimethylamino)quinazolin-2-yl]amino}cyclohexyl)thiourea]",2 (Class 2: The value of percent of control at 10^−7 M was from 40% to 60% or the value of IC50 was from 50 nM to 200 nM.)
10,CN(C)c1nc(N[C@H]2CC[C@@H](NC(=S)Nc3cc(F)ccc3Br)CC2)nc2ccccc12 [compound 364],2 (Class 2: The value of percent of control at 10^−7 M was from 40% to 60% or the value of IC50 was from 50 nM to 200 nM.)
11,"CCOc1ccccc1NC(=S)N[C@H]1CC[C@@H](Nc2nc(N(C)C)c3ccccc3n2)CC1 [compound 365, N-(cis-4-{[4-(dimethylamino)quinazolin-2-yl]amino}cyclohexyl)-N′-(2-ethoxyphenyl)thiourea]",1 (Class 1: The value of percent of control at 10^−7 M was less than 40% or the value of IC50 was less than 50 nM.)
12,"Cc1cccc(C(C)C)c1NC(=S)N[C@H]1CC[C@@H](Nc2nc(N(C)C)c3ccccc3n2)CC1 [compound 366, N-(cis-4-{[4-(dimethylamino)quinazolin-2-yl]amino}cyclohexyl)-N′-(2-isopropyl-6-methylphenyl)thiourea]",1 (Class 1: The value of percent of control at 10^−7 M was less than 40% or the value of IC50 was less than 50 nM.)
13,"COc1ccccc1CNC(=S)N[C@H]1CC[C@@H](Nc2nc(N(C)C)c3ccccc3n2)CC1 [compound 367, N-(cis-4-{[4-(dimethylamino)quinazolin-2-yl]amino}cyclohexyl)-N′-(2-methoxybenzyl)thiourea]",2 (Class 2: The value of percent of control at 10^−7 M was from 40% to 60% or the value of IC50 was from 50 nM to 200 nM.)
14,"CN(C)c1nc(N[C@H]2CC[C@@H](NC(=S)Nc3ccc4c(c3)OCCO4)CC2)nc2ccccc12 [compound 368, N-(2,3-dihydro-1,4-benzodioxin-6-yl)-N′-(cis-4-{[4-(dimethylamino)quinazolin-2-yl]amino}cyclohexyl)thiourea]",1 (Class 1: The value of percent of control at 10^−7 M was less than 40% or the value of IC50 was less than 50 nM.)
15,Cc1ccc(NC(=S)N[C@H]2CC[C@@H](Nc3nc(N(C)C)c4ccccc4n3)CC2)cc1C [compound 369],3 (Class 3: The value of percent of control at 10^−7 M was more than 60% or the value of IC50 was more than 200 nM.)
